Source: patent publication US8030300B2, “Ligands for nicotinic acetylcholine receptors, and methods of making and using them” (priority 2003, dated 2011)
Like-named read-outs stand apart in the source and are kept apart here.

What was measured:
Experiment in all cases: biochemical
Assay type in all cases: binding
[1] = biological target: T1, α2β2 nAChR subtype (Rattus norvegicus, UniProt P12389+P12390)
T1 construct: expressed in transfected cells
From the text: (§1) In order to assess the steric and hydropathic effects of the C-5 substituents of the pyridine on the binding affinity and subtype-selectivity at neuronal nicotinic acetylcholine receptors. […] The binding affinity ratios for a ligand, calculated from its affinities at an α subunit paired with either the β2 osubunit or the β4 subunit, represents a measure of the selectivity of that ligand with regard to the β subunits.

[2] = biological target: T2, α2β4 nAChR subtype (Rattus norvegicus, UniProt P12389+P12392)
T2 construct: expressed in transfected cells
T2 sequence (P12389 28-511): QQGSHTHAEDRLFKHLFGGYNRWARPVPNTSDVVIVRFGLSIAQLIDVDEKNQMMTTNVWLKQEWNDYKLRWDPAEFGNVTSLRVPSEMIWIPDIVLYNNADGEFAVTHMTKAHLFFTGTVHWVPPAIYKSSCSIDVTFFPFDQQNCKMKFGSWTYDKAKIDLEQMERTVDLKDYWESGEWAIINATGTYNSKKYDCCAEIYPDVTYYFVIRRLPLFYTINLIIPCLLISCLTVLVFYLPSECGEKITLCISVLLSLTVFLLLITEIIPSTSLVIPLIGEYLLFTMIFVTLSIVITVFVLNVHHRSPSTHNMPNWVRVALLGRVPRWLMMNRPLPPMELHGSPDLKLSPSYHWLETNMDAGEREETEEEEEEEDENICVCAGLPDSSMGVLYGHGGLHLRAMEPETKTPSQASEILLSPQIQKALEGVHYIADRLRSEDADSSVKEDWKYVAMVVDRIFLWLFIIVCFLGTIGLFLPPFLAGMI
T2 sequence (P12392 21-495): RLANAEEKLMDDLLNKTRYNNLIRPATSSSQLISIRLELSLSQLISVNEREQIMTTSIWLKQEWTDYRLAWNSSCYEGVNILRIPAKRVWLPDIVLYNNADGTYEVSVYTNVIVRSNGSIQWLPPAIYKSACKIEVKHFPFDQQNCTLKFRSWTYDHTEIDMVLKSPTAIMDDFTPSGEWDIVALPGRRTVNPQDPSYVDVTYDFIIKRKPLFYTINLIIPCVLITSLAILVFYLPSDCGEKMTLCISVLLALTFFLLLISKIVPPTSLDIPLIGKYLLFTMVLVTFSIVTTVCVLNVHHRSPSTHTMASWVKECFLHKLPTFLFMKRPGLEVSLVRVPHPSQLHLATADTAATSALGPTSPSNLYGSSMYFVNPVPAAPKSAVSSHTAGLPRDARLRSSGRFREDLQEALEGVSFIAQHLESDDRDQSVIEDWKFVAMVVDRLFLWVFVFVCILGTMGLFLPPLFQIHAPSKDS
From the text: as §1

[3] = biological target: T3, α3β2 nAChR subtype (Rattus norvegicus, UniProt P04757+P12390)
T3 construct: expressed in transfected cells
T3 sequence (P12390 25-500): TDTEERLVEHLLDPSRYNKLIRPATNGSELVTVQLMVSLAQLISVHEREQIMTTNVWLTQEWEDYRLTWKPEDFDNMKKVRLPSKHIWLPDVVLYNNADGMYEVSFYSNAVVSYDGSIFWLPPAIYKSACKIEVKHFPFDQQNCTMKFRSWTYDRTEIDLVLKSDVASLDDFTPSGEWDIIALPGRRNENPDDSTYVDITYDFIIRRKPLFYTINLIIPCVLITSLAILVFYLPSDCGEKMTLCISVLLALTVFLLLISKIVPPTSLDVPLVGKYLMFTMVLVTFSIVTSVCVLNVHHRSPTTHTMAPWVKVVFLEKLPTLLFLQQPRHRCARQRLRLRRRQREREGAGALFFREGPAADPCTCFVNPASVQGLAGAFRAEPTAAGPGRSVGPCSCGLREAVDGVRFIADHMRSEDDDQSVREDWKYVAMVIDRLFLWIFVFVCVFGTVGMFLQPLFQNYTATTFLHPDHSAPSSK
T3 sequence (P04757 26-499): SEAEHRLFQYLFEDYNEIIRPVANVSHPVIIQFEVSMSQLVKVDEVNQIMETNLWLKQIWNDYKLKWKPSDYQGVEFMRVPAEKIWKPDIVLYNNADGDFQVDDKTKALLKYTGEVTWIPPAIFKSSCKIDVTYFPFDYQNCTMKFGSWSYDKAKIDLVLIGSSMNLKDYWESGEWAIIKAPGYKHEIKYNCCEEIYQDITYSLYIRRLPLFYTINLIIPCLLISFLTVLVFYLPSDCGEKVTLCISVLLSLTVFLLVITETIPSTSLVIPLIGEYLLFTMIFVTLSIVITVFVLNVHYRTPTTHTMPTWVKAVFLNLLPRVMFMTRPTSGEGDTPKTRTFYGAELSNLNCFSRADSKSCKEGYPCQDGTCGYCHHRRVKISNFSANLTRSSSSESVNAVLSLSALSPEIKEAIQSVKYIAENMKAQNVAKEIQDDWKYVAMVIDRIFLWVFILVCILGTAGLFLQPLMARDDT
From the text: as §1

[4] = biological target: T4, α3β4 nAChR subtype (Rattus norvegicus, UniProt P04757+P12392)
T4 construct: expressed in transfected cells
T4 sequence (P04757 26-499): as above
T4 sequence (P12392 21-495): as the sequence (P12392 21-495) above
From the text: as §1

[5] = biological target: T5, α4β2 nAChR subtype (Rattus norvegicus, UniProt P09483+P12390)
T5 construct: expressed in transfected cells
T5 sequence (P12390 25-500): as the sequence (P12390 25-500) above
T5 sequence (P09483 31-630): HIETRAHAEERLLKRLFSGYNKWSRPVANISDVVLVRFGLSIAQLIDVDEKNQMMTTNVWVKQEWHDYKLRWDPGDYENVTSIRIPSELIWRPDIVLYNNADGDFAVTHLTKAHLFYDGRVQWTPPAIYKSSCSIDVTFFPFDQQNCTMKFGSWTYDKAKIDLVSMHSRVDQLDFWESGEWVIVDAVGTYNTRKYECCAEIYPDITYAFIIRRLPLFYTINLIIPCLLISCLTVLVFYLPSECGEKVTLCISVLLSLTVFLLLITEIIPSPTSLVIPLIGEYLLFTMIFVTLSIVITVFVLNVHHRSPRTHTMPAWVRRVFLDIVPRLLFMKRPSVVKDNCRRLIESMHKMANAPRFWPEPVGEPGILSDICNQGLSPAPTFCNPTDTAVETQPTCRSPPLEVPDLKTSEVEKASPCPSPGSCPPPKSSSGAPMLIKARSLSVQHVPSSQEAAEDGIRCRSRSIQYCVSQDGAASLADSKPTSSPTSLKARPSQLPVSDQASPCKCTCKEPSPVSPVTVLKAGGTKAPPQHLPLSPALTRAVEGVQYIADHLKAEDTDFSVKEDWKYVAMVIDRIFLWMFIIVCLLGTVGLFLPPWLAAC
From the text: as §1

[6] = biological target: T6, α4β4 nAChR subtype (Rattus norvegicus, UniProt P09483+P12392)
T6 construct: expressed in transfected cells
T6 sequence (P12392 21-495): as the sequence (P12392 21-495) above
T6 sequence (P09483 31-630): as the sequence (P09483 31-630) above
From the text: as §1

[7] = biological target: T7, receptors in rat forebrain (mainly α4β2) (Rattus norvegicus, UniProt P09483+P12390); settings: Ki α4β2*, Table 5; *Rat forebrain, mainly α4β2
T7 construct: from tissue; host or cells: rat forebrain homogenate
T7 sequence (P09483 31-630): as above
T7 sequence (P12390 25-500): as the sequence (P12390 25-500) above
From the text: as §1
In Vitro Inhibition of ^3H-Epibatidin Binding
The high affinity binding site for ^3H-epibatidin is most certainly binding to the α4β2 subtype of nicotinic receptors. The identity of the low affinity site is still believed to be unknown.
Tissue preparation: Preparations may be performed at 0-4° C. unless otherwise indicated. […] The tissue suspension may then be centrifuged at 27,000×g for 10 min. The supernatant is then discarded and the pellet may then be washed three times by centrifugation at 27,000×g for 10 min in 20 mL fresh buffer, and the final pellet may be resuspended in fresh buffer (400 mL per g of original tissue) and used for binding assays.
Assay: Aliquots of 2.0 mL homogenate may be added to 0.100 mL of test solution and 0.100 mL of ^3H-epibatidin (0.3 nM, final concentration), mixed and incubated for 60 min at room temperature. […] The amount of radioactivity on the filters may be determined by conventional liquid scintillation counting. Specific binding is total binding minus non-specific binding.

[8] = Ki α2β2, Table 5, rat nAChR subtypes
[9] = Ki α2β4, Table 5, rat nAChR subtypes
[10] = Ki α3β2, Table 5, rat nAChR subtypes
[11] = Ki α3β4, Table 5, rat nAChR subtypes
[12] = Ki α4β2, Table 5, rat nAChR subtypes
[13] = Ki α4β4, Table 5, rat nAChR subtypes
[14] = Ki α2β2, Table 4, bivalent analogues
[15] = Ki α2β4, Table 4, bivalent analogues
[16] = Ki α3β2, Table 4, bivalent analogues
[17] = Ki α3β4, Table 4, bivalent analogues
[18] = Ki α4β2, Table 4, bivalent analogues
[19] = Ki α4β4, Table 4, bivalent analogues

T1 sequence (P12390 25-500): as above
T1 sequence (P12389 28-511): as the sequence (P12389 28-511) above

| Structure (SMILES) | Ki [1, 8] [nM] | Ki [2, 9] [nM] | Ki [3, 10] [nM] | Ki [4, 11] [nM] | Ki [5, 12] [nM] | Ki [6, 13] [nM] | Ki [7] [nM] | Ki [1, 14] [nM] | Ki [2, 15] [nM] | Ki [3, 16] [nM] | Ki [4, 17] [nM] | Ki [5, 18] [nM] | Ki [6, 19] [nM] | also measured |
| --- | --- | --- | --- | --- | --- | --- | --- | --- | --- | --- | --- | --- | --- | --- |
| Clc1ccc(C2CC3CCC2N3CCN2C3CCC2CC3)cn1 (centres unmarked) [ZW-84] | 7.08 | 16.6 | 21.1 | 67.6 | 21.9 | 84.5 | 112 |  |  |  |  |  |  |  |
| FC1CC2CC(c3ccc(Cl)nc3)C1N2 (stereo not drawn) [Ligand 11, 2-exo-(2-Chloro-5-pyridyl)-6-fluoro-7-azabicyclo[2.2.1]heptane] | 0.218 | 0.481 | 0.149 | 2.48 | 0.328 | 0.172 | 0.668 |  |  |  |  |  |  |  |
| O=C1CC2CC(c3ccc(Cl)nc3)C1N2 (racemic) [Ligand 5] |  |  |  |  |  |  |  |  |  |  |  |  |  | Ki ([1]; read-out: Ki α2β2): 1010 nM; Ki ([2]; read-out: Ki α2β4): 3240 nM; Ki ([3]; read-out: Ki α3β2): 1500 nM; Ki ([4]; read-out: Ki α3β4): 8870 nM; Ki ([5]; read-out: Ki α4β2): 2020 nM; Ki ([6]; read-out: Ki α4β4): 3560 nM |
| OC1CC2CC(c3ccc(Cl)nc3)C1N2 (racemic) [Ligand 9] |  |  |  |  |  |  |  |  |  |  |  |  |  | Ki ([1]; read-out: Ki α2β2): 1.53 nM; Ki ([2]; read-out: Ki α2β4): 5.85 nM; Ki ([3]; read-out: Ki α3β2): 1.36 nM; Ki ([4]; read-out: Ki α3β4): 27.3 nM; Ki ([5]; read-out: Ki α4β2): 0.92 nM; Ki ([6]; read-out: Ki α4β4): 5.57 nM |
| Clc1ccc(C2CC3CCC2N3CCCN2C3CCC2C(c2ccc(Cl)nc2)C3)cn1 (centres unmarked) [Ligand 59b] |  |  |  |  |  |  |  | 6.1 | 15.7 | 5.2 | 62.9 | 8.7 | 23.3 |  |
| O[C@H]1C[C@H]2N[C@@H]1C[C@@H]2c1ccc(Cl)nc1 (relative stereo) [Ligand 6, 2-exo-(2-Chloro-5-pyridyl)-5-exo-hydroxyl-7-azabicyclo[2.2.1]heptane] | 16.9 | 67.5 | 19.3 | 224 |  | 72.7 | 69 |  |  |  |  |  |  |  |
| Clc1ccc(C2CC3CCC2N3CCN2C3CCC2C(c2ccc(Cl)nc2)C3)cn1 (centres unmarked) [Ligand 59a] |  |  |  |  |  |  |  | 1.3 | 2.9 | 5.6 | 11.8 | 10.7 | 18 |  |
| O[C@H]1[C@H](c2ccc(Cl)nc2)[C@H]2CC[C@@H]1N2 (relative stereo) [Ligand 3] |  |  |  |  |  |  |  |  |  |  |  |  |  | Ki ([1]; Ki α2β2): 2.5 nM; Ki ([2]; Ki α2β4): 15.3 nM; Ki ([3]; Ki α3β2): 7.3 nM; Ki ([4]; Ki α3β4): 39.1 nM; Ki ([5]; Ki α4β2): 2.9 nM; Ki ([6]; Ki α4β4): 11.2 nM |
| Clc1ccc(C2CC3CCC2N3CCCCCCCCCCN2C3CCC2C(c2ccc(Cl)nc2)C3)cn1 (centres unmarked) [Ligand 59d] |  |  |  |  |  |  |  | 5.8 | 24.2 | 6.8 | 67.7 | 10.3 | 18.7 |  |
| OCCCCC#Cc1cncc(OC[C@@H]2CCN2)c1 [Ligand 26, 5-(6-Hydroxy-1-hexynyl)-3-(2(S)-azetidinylmethoxy)pyridine] | 0.06 | 269 | 0.53 | 4840 | 0.09 | 74 |  |  |  |  |  |  |  |  |
